Here are results for six compounds from US11248030B2, “Dual IL-2R and IL-7R binding compounds” (MEDIKINE, INC., priority 2019, dated 2022).

The target of one assay is T1, IL-2Rβ subunit (Homo sapiens, UniProt P14784).
T1 construct: human IL-2Rβ (CD122 protein, Fc Tag) (27-239); Fc; purchased ACRObiosystems, Inc. ILB-H5253
T1 sequence (P14784 27-239): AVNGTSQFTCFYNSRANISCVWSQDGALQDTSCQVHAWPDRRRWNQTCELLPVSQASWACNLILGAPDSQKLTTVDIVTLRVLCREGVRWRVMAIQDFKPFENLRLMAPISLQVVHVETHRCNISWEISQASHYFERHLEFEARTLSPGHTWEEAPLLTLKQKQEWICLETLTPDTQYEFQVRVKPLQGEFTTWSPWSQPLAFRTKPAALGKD
Nature of the assay: competitive binding assay, specific binding site on the IL-2Rβ subunit.
Conditions: not given
`CC[C@H](C)[C@@H]1NC(=O)[C@H](CCCNC(=N)N)NC(=O)[C@@H](NC(=O)[C@H](CC(=O)O)NC(=O)[C@@H](N)Cc2ccc(O)cc2)CSSC[C@@H](C(=O)N[C@@H](CC(=O)O)C(=O)N[C@@H](CC(C)C)C(=O)O)NC(=O)[C@H](CC(C)C)NC(=O)[C@H](CCC(=O)O)NC(=O)CNC(=O)[C@H](C(C)C)NC(=O)[C@H](CCC(N)=O)NC(=O)[C@H](C)NC1=O` [SEQ ID NO: 154, Y D C R I A Q V G E L C D L]: the IC50 is < 10 µM.
For the compound `CC[C@H](C)[C@H](NC(=O)[C@H](CCC(N)=O)NC(=O)[C@@H]1CSSC[C@H](NC(=O)[C@H](CCSC)NC(=O)[C@@H](N)CC(N)=O)C(=O)N[C@@H](CC(C)C)C(=O)N[C@@H](C(C)C)C(=O)NCC(=O)N[C@@H](CC(=O)O)C(=O)N[C@@H](Cc2ccc(O)cc2)C(=O)N[C@@H](Cc2c[nH]c3ccccc23)C(=O)N2CCC[C@H]2C(=O)N[C@@H](CO)C(=O)N1)C(=O)O` [SEQ ID NO: 180, N M C L V G D Y W P S C Q I], the IC50 was < 10 µM.
On to `CSCC[C@H](NC(=O)[C@H](CC(C)C)NC(=O)[C@H](CC(C)C)NC(=O)[C@H](CC(=O)O)NC(=O)CNC(=O)[C@@H](NC(=O)[C@H](CC(=O)O)NC(=O)CNC(=O)[C@H](Cc1c[nH]c2ccccc12)NC(=O)[C@@H](N)CCCNC(=N)N)C(C)C)C(=O)N1CCC[C@H]1C(=O)N[C@@H](CC(C)C)C(=O)O` [SEQ ID NO: 209, R W G D V G D L L M P L], for which the IC50 is < 10 µM.

The target in a further assay is T2, IL-7Rα subunit (Homo sapiens, UniProt P16871).
T2 construct: human IL-7Rα (CD127 protein, Fc Tag) (21-236); Fc; purchased ACRObiosystems, Inc. ILB-H5258
T2 sequence (P16871 21-236): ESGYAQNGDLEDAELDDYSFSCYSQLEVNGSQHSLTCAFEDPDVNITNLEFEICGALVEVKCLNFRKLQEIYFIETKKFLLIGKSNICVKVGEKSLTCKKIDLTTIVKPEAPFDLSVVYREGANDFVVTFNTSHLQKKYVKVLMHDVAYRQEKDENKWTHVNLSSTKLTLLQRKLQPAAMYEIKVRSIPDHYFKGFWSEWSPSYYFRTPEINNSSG
Nature of the assay: competitive binding assay, specific binding site on the IL-7Rα subunit. The note with it: specific binding site distinct from that of IL-7.
Regarding `CC[C@H](C)[C@@H]1NC(=O)[C@H](CCC(=O)O)NC(=O)[C@H](C)NC(=O)[C@@H](NC(=O)[C@H](Cc2ccc(O)cc2)NC(=O)[C@@H](N)C(C)C)CSSC[C@@H](C(=O)N[C@@H](CCCNC(=N)N)C(=O)N[C@@H](CCC(N)=O)C(=O)O)NC(=O)[C@H](C(C)C)NC(=O)[C@H](CCCNC(=N)N)NC(=O)[C@H](Cc2ccc(O)cc2)NC(=O)[C@H](CCC(=O)O)NC(=O)CNC1=O` [SEQ ID NO: 2043, V Y C A E I G E Y R V C R Q], the IC50 is < 10 µM.
On the same count and under the same terms, the value for `CC[C@H](C)[C@@H]1NC(=O)[C@@H](NC(=O)[C@@H](N)CCC(N)=O)CSSC[C@@H](C(=O)N[C@H](C(=O)O)C(C)C)NC(=O)[C@H](CO)NC(=O)[C@H](CC(C)C)NC(=O)[C@H](CC(C)C)NC(=O)[C@H]([C@@H](C)O)NC(=O)[C@H](CCC(=O)O)NC(=O)[C@H]([C@@H](C)CC)NC(=O)[C@H](CC(=O)O)NC(=O)[C@H](Cc2c[nH]c3ccccc23)NC(=O)[C@H](Cc2c[nH]cn2)NC1=O` [SEQ ID NO: 2159, Q C I H W D I E T L L S C V] was < 10 µM.
On the same count and under the same terms, the value for `CC(C)C[C@@H]1NC(=O)[C@H](CO)NC(=O)CNC(=O)[C@@H]2CCCN2C(=O)[C@H](CC(=O)O)NC(=O)[C@H](CC(C)C)NC(=O)[C@H]([C@@H](C)O)NC(=O)[C@@H](NC(=O)[C@H](Cc2c[nH]c3ccccc23)NC(=O)[C@@H]2CCCN2C(=O)[C@@H](N)C(C)C)CSSC[C@@H](C(=O)N[C@@H](C)C(=O)N[C@@H](Cc2c[nH]c3ccccc23)C(=O)N[C@@H](Cc2ccccc2)C(=O)O)NC(=O)[C@H](CCC(N)=O)NC1=O` [SEQ ID NO: 2313, V P W C T L D P G S L Q C A W F] was < 10 µM.

A word on the IC50: it is the concentration at which inhibition is half-maximal.
